Data published in patent US20220411380A1, “ACID ADDITION SALT OF RORy REGULATOR” (JIANGSU HENGRUI MEDICINE CO., LTD., priority 2019, published 2022).

Key:
Type in all cases: physicochemical
[1] = Long-term/accelerated stability study of crystalline form α of hydrochloride and crystalline form I of hydrobromide
Protocol: The crystalline form α of the hydrochloride of the compound of formula II was let stand in conditions of 25° C./60% RH and 40° C./75% RH to examine its stability.
The crystalline form I of the hydrobromide of the compound of formula II was let stand in conditions of 25° C./60% RH and 40° C./75% RH to examine its stability.

[2] = Influencing factor study of crystalline form α of hydrochloride and crystalline form I of hydrobromide
Protocol: Sample of the crystalline form α of the hydrochloride and the crystalline form I of the hydrobromide of the compound of formula II were let stand open to examine the stability of the samples in conditions of illumination (4500 Lux), high temperature (40° C. and 60° C.) and high humidity (RH 75% and RH 92.5%) in a period of 30 days.

[3] = DVS (dynamic vapor sorption) characterization
Protocol: DVS refers to dynamic vapor sorption: The measurement was conducted with a Surface Measurement Systems advantage 2 at 25° C., starting from 50% humidity in humidity range of 0%-95% with a step size of 10%. The judging criterion was that the mass change of each gradient dM/dT is less than 0.002 and TMAX is less than 360 min in two circles.

SMILES: Cl.NC(=O)C[C@H](c1ccc(S(=O)(=O)CC2CC2)cc1)c1nc2cc(-c3ccccc3OC(F)F)c(Cl)cc2[nH]1 [Crystalline form α of hydrochloride of compound of formula I]
- Chiral purity (%) ([1]; 25° C., 60% RH, Day 7): 99.131%
- Color and appearance ([1]; 25° C., 60% RH, Day 7): White solid
- Crystalline form ([1]; 25° C., 60% RH, Day 7): Not changed
- Main peak purity (%) ([1]; 25° C., 60% RH, Day 7): 96.915%
- Chiral purity (%) ([1]; 25° C., 60% RH, Day 14): 99.111%
- Color and appearance ([1]; 25° C., 60% RH, Day 14): White solid
- Crystalline form ([1]; 25° C., 60% RH, Day 14): Not changed
- Main peak purity (%) ([1]; 25° C., 60% RH, Day 14): 96.831%
- Chiral purity (%) ([1]; 25° C., 60% RH, Month 1): 99.225%
- Chloride ion content (%) ([1]; 25° C., 60% RH, Month 1): 5.75%
- Color and appearance ([1]; 25° C., 60% RH, Month 1): White solid
- Crystalline form ([1]; 25° C., 60% RH, Month 1): Not changed
- Main peak purity (%) ([1]; 25° C., 60% RH, Month 1): 96.906%
- Chiral purity (%) ([1]; 25° C., 60% RH, Month 2): 99.332%
- Chloride ion content (%) ([1]; 25° C., 60% RH, Month 2): 5.74%
- Color and appearance ([1]; 25° C., 60% RH, Month 2): White solid
- Crystalline form ([1]; 25° C., 60% RH, Month 2): Not changed
- Main peak purity (%) ([1]; 25° C., 60% RH, Month 2): 96.883%
- Chiral purity (%) ([1]; 25° C., 60% RH, Month 3): 99.239%
- Color and appearance ([1]; 25° C., 60% RH, Month 3): White solid
- Crystalline form ([1]; 25° C., 60% RH, Month 3): Not changed
- Main peak purity (%) ([1]; 25° C., 60% RH, Month 3): 96.749%
- Chiral purity (%) ([1]; 25° C., 60% RH, Month 6): 99.187%
- Chloride ion content (%) ([1]; 25° C., 60% RH, Month 6): 5.85%
- Color and appearance ([1]; 25° C., 60% RH, Month 6): White solid
- Crystalline form ([1]; 25° C., 60% RH, Month 6): Not changed
- Main peak purity (%) ([1]; 25° C., 60% RH, Month 6): 96.170%
- Chiral purity (%) ([1]; 40° C., 75% RH, Day 7): 99.137%
- Color and appearance ([1]; 40° C., 75% RH, Day 7): White solid
- Crystalline form ([1]; 40° C., 75% RH, Day 7): Not changed
- Main peak purity (%) ([1]; 40° C., 75% RH, Day 7): 96.906%
- Chiral purity (%) ([1]; 40° C., 75% RH, Day 14): 99.104%
- Color and appearance ([1]; 40° C., 75% RH, Day 14): White solid
- Crystalline form ([1]; 40° C., 75% RH, Day 14): Not changed
- Main peak purity (%) ([1]; 40° C., 75% RH, Day 14): 96.902%
- Chiral purity (%) ([1]; 40° C., 75% RH, Month 1): 99.206%
- Chloride ion content (%) ([1]; 40° C., 75% RH, Month 1): 5.44%
- Color and appearance ([1]; 40° C., 75% RH, Month 1): White solid
- Crystalline form ([1]; 40° C., 75% RH, Month 1): Not changed
- Main peak purity (%) ([1]; 40° C., 75% RH, Month 1): 96.846%
- Chiral purity (%) ([1]; 40° C., 75% RH, Month 2): 99.292%
- Chloride ion content (%) ([1]; 40° C., 75% RH, Month 2): 5.86%
- Color and appearance ([1]; 40° C., 75% RH, Month 2): White solid
- Crystalline form ([1]; 40° C., 75% RH, Month 2): Not changed
- Main peak purity (%) ([1]; 40° C., 75% RH, Month 2): 96.780%
- Chiral purity (%) ([1]; 40° C., 75% RH, Month 3): 99.149%
- Color and appearance ([1]; 40° C., 75% RH, Month 3): White solid
- Crystalline form ([1]; 40° C., 75% RH, Month 3): Not changed
- Main peak purity (%) ([1]; 40° C., 75% RH, Month 3): 96.664%
- Chiral purity (%) ([1]; 40° C., 75% RH, Month 6): 98.972%
- Chloride ion content (%) ([1]; 40° C., 75% RH, Month 6): 5.98%
- Color and appearance ([1]; 40° C., 75% RH, Month 6): White solid
- Crystalline form ([1]; 40° C., 75% RH, Month 6): Not changed
- Main peak purity (%) ([1]; 40° C., 75% RH, Month 6): 95.990%
- Chiral purity (%) ([1]; Initial, 0): 99.14%
- Chloride ion content (%) ([1]; Initial, 0): 5.75%
- Color and appearance ([1]; Initial, 0): White solid
- Crystalline form ([1]; Initial, 0): Crystalline
- Main peak purity (%) ([1]; Initial, 0): 96.925%
- Stability (conclusion of long-term/accelerated study) ([1]; long term and acceleration, 6 months): good physical and chemical stability
- Chiral purity (%) ([2]; 40° C., 7 days): 99.131%
- Color and appearance ([2]; 40° C., 7 days): White solid
- Crystalline form ([2]; 40° C., 7 days): Not changed
- Main peak purity (%) ([2]; 40° C., 7 days): 96.915%
- Chiral purity (%) ([2]; 40° C., 14 days): 99.115%
- Color and appearance ([2]; 40° C., 14 days): White solid
- Crystalline form ([2]; 40° C., 14 days): Not changed
- Main peak purity (%) ([2]; 40° C., 14 days): 96.921%
- Chiral purity (%) ([2]; 40° C., 30 days): 99.207%
- Chloride ion content (%) ([2]; 40° C., 30 days): 5.75%
- Color and appearance ([2]; 40° C., 30 days): White solid
- Crystalline form ([2]; 40° C., 30 days): Not changed
- Main peak purity (%) ([2]; 40° C., 30 days): 96.824%
- Chiral purity (%) ([2]; 60° C., 7 days): 99.136%
- Color and appearance ([2]; 60° C., 7 days): White solid
- Crystalline form ([2]; 60° C., 7 days): Not changed
- Main peak purity (%) ([2]; 60° C., 7 days): 96.884%
- Chiral purity (%) ([2]; 60° C., 14 days): 99.106%
- Color and appearance ([2]; 60° C., 14 days): White solid
- Crystalline form ([2]; 60° C., 14 days): Not changed
- Main peak purity (%) ([2]; 60° C., 14 days): 96.907%
- Chiral purity (%) ([2]; 60° C., 30 days): 99.232%
- Chloride ion content (%) ([2]; 60° C., 30 days): 5.65%
- Color and appearance ([2]; 60° C., 30 days): White solid
- Crystalline form ([2]; 60° C., 30 days): Not changed
- Main peak purity (%) ([2]; 60° C., 30 days): 96.814%
- Chiral purity (%) ([2]; 75% RH, 7 days): 99.138%
- Color and appearance ([2]; 75% RH, 7 days): White solid
- Crystalline form ([2]; 75% RH, 7 days): Not changed
- Main peak purity (%) ([2]; 75% RH, 7 days): 96.916%
- Chiral purity (%) ([2]; 75% RH, 14 days): 99.130%
- Color and appearance ([2]; 75% RH, 14 days): White solid
- Crystalline form ([2]; 75% RH, 14 days): Not changed
- Main peak purity (%) ([2]; 75% RH, 14 days): 96.908%
- Chiral purity (%) ([2]; 75% RH, 30 days): 99.220%
- Chloride ion content (%) ([2]; 75% RH, 30 days): 5.68%
- Color and appearance ([2]; 75% RH, 30 days): White solid
- Crystalline form ([2]; 75% RH, 30 days): Not changed
- Main peak purity (%) ([2]; 75% RH, 30 days): 96.903%
- Chiral purity (%) ([2]; 92.5% RH, 7 days): 99.132%
- Color and appearance ([2]; 92.5% RH, 7 days): White solid
- Crystalline form ([2]; 92.5% RH, 7 days): Not changed
- Main peak purity (%) ([2]; 92.5% RH, 7 days): 96.912%
- Chiral purity (%) ([2]; 92.5% RH, 14 days): 99.111%
- Color and appearance ([2]; 92.5% RH, 14 days): White solid
- Crystalline form ([2]; 92.5% RH, 14 days): Not changed
- Main peak purity (%) ([2]; 92.5% RH, 14 days): 96.908%
- Chiral purity (%) ([2]; 92.5% RH, 30 days): 99.211%
- Chloride ion content (%) ([2]; 92.5% RH, 30 days): 5.67%
- Color and appearance ([2]; 92.5% RH, 30 days): White solid
- Crystalline form ([2]; 92.5% RH, 30 days): Not changed
- Main peak purity (%) ([2]; 92.5% RH, 30 days): 96.880%
- Chiral purity (%) ([2]; 4500 Lux, 7 days): 99.137%
- Color and appearance ([2]; 4500 Lux, 7 days): White solid
- Crystalline form ([2]; 4500 Lux, 7 days): Not changed
- Main peak purity (%) ([2]; 4500 Lux, 7 days): 96.911%
- Chiral purity (%) ([2]; 4500 Lux, 14 days): 99.139%
- Color and appearance ([2]; 4500 Lux, 14 days): White solid
- Crystalline form ([2]; 4500 Lux, 14 days): Not changed
- Main peak purity (%) ([2]; 4500 Lux, 14 days): 96.911%
- Chiral purity (%) ([2]; 4500 Lux, 30 days): 99.216%
- Chloride ion content (%) ([2]; 4500 Lux, 30 days): 5.71%
- Color and appearance ([2]; 4500 Lux, 30 days): White solid
- Crystalline form ([2]; 4500 Lux, 30 days): Not changed
- Main peak purity (%) ([2]; 4500 Lux, 30 days): 96.810%
- Chiral purity (%) ([2]; Initial, 0 days): 99.14%
- Chloride ion content (%) ([2]; Initial, 0 days): 5.75%
- Color and appearance ([2]; Initial, 0 days): White solid
- Crystalline form ([2]; Initial, 0 days): Crystalline
- Main peak purity (%) ([2]; Initial, 0 days): 96.925%
- Stability (conclusion of influencing factor study) ([2]; illumination, 40° C. and 60° C., high humidities of 75% and 92.5%): good physical and chemical stabilities
- Crystalline form before and after DVS (XRPD comparison) ([3]; 0-95% humidity change): crystalline form did not change during DVS
- DVS weight change ([3]; 25° C., 20.0% RH to 80.0% RH): 0.549%
- Hygroscopicity ([3]; DVS, 25° C., 20.0% RH to 80.0% RH): slightly hygroscopic
- Vapor sorption ([3]; accelerated test condition, 70% humidity): about 0.574%
- Vapor sorption ([3]; extreme condition, 90% humidity): about 1.040%
- Vapor sorption ([3]; normal storage condition, 60% humidity/25° C.): about 0.463%
